Read-outs that look alike come from different tables or passages of the source.
Biological target: complex II (succinate:quinone reductase, SQR) (Echinococcus multilocularis, UniProt A0A1Z4EAW8+A0A1Z4EAX0+A0A1Z4EAX1)
Experiment: Succinate:quinone reductase (SQR) activity (complex II) in protoscoleces mitochondrial fraction
Type: biochemical
From the text: Cyst tissues containing E. multilocularis (Nemuro strain) protoscoleces isolated from infected hispid cotton rats, Sigmodon hispidus, were used. The tissues were shredded through a metal mesh (0.5 mm diameter). Then, the tissues were repeatedly suspended and washed with physiological saline in a tall beaker to obtain protoscoleces by exploiting the buoyancy difference between protoscoleces and other tissue ([26]). The obtained protoscoleces were homogenized with a motor-driven homogenizer to prepare the mitochondrial fraction. The homogenate was diluted with mitochondrial preparation buffer (210 mM mannitol, 10 mM sucrose, 1 mM disodium EDTA, and 50 mM Tris-HCl [pH 7.5]) supplemented with 10 mM sodium malonate to 5 times the volume of the original protoscolex homogenate, and then centrifuged at 800 × g for 10 min (4°C) to remove cell debris and nuclei. The supernatant was then centrifuged at 8,000 × g for 10 min (4°C) to obtain the mitochondrial pellet. Next, the pellet was resuspended in mitochondrial preparation buffer (without malonate) and centrifuged at 8,000 × g for 10 min (4°C). The enriched mitochondrial fraction was finally suspended in approximately 0.5 to 1.0 mL of mitochondrial preparation buffer without malonate and frozen at −50°C. The mitochondrial fraction from A. suum was prepared essentially as described previously ([27], [28]).
NADH:quinone reductase activity (complex I), succinate:quinone reductase activity (complex II), and succinate:cytochrome c reductase activity (complexes II to III) were measured using a UV-3000 spectrophotometer (Shimadzu, Kyoto, Japan) as described previously ([4], [6]). Briefly, all enzyme assays using mitochondrial fractions were performed in 0.5- or 1.0-mL reaction mixtures at 25°C. A freeze/thaw process was performed before the assay to ensure that the mitochondrial membrane was permeable to the solutes. The final mitochondrial protein concentration was 50 μg/mL. NADH:quinone reductase activity was measured in 50 mM potassium phosphate buffer (pH 7.4) containing 2 mM potassium cyanide, KCN (Sigma, St. Louis, MO, USA), and 60 μM decylubiquinone (Sigma). The activity assay was started by the addition of 50 μM NADH (Fujifilm-Wako, Tokyo, Japan) and recorded as the rate of NADH consumption as monitored at 340 nm (ε = 6.2 mM^−1 cm^−1). The reagents used in the SQR activity assay were mixed with the reaction buffer containing 50 mM potassium phosphate (pH 7.4) and 0.1% (wt/vol) sucrose monolaurate (DOJINDO, Kumamoto, Japan). SQR activity was determined by monitoring the change in absorbance of quinone at 278 nm (ε = 15 mM^−1 cm^−1) in the presence of 60 μM decylubiquinone, 2 mM KCN, and the inhibitor. The reaction was initiated by the addition of 10 mM disodium succinate to the mixture. NADH:cytochrome c activity (complex I to III) was measured in the reaction buffer (30 mM potassium phosphate, 1 mM MgCl2, pH 7.5) containing 2 mM KCN, 50 μM cytochrome c (Nacalai Tesque, Kyoto, Japan), and the inhibitor. The assay was performed after the addition of 100 mM malonate to block complex II activity. The reaction was started by adding 50 μM NADH to the mixture, and the enzyme activity was determined by monitoring the change in absorbance of cytochrome c at 550 nm (ε = 19 mM^−1 cm^−1). IC50 values of AF and its derivatives against the specific activities of mitochondrial respiratory enzymes in protoscoleces were determined. The IC50 of each compound was determined by calculating approximation lines from three or more points on either side of the IC50 concentration.

[1] = IC50, inhibition of E. multilocularis SQR, Table 2, substitutions on the benzene group, mean ± SEM
[2] = IC50, inhibition of E. multilocularis SQR, Table 4, different linker structures, mean ± SEM
[3] = IC50, E. multilocularis SQR inhibition, Table 5, furanone ring-substituted derivatives, mean ± SEM
[4] = IC50 against E. multilocularis complex II (SQR), figure legends, supplement

Sequence of complex II (succinate:quinone reductase, SQR) (A0A1Z4EAV8 entry or part of it): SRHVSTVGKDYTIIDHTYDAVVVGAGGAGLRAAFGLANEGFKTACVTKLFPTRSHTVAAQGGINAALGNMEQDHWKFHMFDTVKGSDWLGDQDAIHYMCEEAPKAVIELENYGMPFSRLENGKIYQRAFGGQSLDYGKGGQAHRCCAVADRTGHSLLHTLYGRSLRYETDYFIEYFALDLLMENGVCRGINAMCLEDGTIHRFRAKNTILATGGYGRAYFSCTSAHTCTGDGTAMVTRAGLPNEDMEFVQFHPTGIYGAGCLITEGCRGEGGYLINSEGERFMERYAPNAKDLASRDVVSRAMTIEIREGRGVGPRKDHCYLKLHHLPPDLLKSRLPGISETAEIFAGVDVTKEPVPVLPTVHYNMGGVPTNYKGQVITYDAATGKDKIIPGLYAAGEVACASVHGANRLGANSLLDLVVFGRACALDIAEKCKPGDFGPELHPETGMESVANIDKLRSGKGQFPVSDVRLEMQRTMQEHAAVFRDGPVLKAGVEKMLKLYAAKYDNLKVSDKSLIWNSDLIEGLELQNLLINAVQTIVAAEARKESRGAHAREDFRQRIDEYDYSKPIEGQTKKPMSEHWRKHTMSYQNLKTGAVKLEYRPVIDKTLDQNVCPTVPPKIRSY
Sequence of complex II (succinate:quinone reductase, SQR) (A0A1Z4EAX1 entry or part of it): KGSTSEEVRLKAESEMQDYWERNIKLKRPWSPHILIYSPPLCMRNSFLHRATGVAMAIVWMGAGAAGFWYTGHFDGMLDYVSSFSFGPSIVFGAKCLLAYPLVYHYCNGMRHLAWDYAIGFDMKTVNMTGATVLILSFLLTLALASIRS
Sequence of complex II (succinate:quinone reductase, SQR) (A0A1Z4EAX0 entry or part of it): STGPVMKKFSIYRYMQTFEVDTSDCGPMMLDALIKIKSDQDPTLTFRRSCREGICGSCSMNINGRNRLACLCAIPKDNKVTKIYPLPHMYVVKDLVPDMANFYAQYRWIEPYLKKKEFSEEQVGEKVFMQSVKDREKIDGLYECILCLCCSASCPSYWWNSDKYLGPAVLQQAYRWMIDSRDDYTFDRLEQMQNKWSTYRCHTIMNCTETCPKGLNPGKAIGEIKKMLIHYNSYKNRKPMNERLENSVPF
Sequence of complex II (succinate:quinone reductase, SQR) (A0A1Z4EAW8 entry or part of it): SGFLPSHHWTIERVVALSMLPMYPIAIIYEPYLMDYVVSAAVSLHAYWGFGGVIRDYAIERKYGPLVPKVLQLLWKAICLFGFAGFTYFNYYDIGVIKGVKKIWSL

With `CC(C)=CCC/C(C)=C/Cc1c(O)c(Cl)c(C)c(C=O)c1O` [Compound D7] the “increase of SQR IC50 compared to D6” value (1-aldehyde (D7) vs 1-acetyl (D6)) was 2 fold.
For `CC(C)=CCC/C(C)=C/Cc1c(O)cc(C)c(C=O)c1O` [Compound D8], the IC50 [1] was over 10000 nM.
`COC(=O)c1c(C)c(Cl)c(O)c(C/C=C(\C)CCC=C(C)C)c1O` [Compound D9] was tested, and the IC50 [1] was over 10000 nM.
Work on `C/C(=C\Cc1c(O)c(Cl)cc(C=O)c1O)CC/C=C(\C)C1CC(=O)C(C)(C)O1` (stereo not shown) [Compound D10] yielded an IC50 [1] of 550 ± 130 nM.
`COc1c(Cl)c(C)c(C=O)c(O)c1C/C=C(\C)CC/C=C(\C)C1CC(=O)C(C)(C)O1` (stereo not shown) [Compound D11] was tested, and the “SQR inhibitory activity” value (4-OH changed to methoxy) was “inhibitory activity was lost” and the IC50 [1] was over 10000 nM.
For `CC(C)=CCC/C(C)=C/Cc1c(O)c(Cl)c(C)c(C=O)c1O` [Compound D12], the IC50 [2] was 570 ± 30 nM.
`Cc1c(Cl)c(O)c(CCC(C)CCCC(C)C)c(O)c1C=O` (stereo not shown) [Compound D13] gave an IC50 [2] of 280 ± 50 nM.
`CCCCCC(C)CCc1c(O)c(Cl)c(C)c(C=O)c1O` (stereo not shown) [Compound D14] gave an IC50 [2] of 540 nM.
Compound `CCCCCCCCc1c(O)c(Cl)c(C)c(C=O)c1O` [Compound D15] has an IC50 [2] of 890 ± 110 nM.
`C#CCOC/C(C)=C/CC/C(C)=C/Cc1c(O)c(Cl)c(C)c(C=O)c1O` [Compound D16] showed an IC50 [3] of 258 ± 72 nM and an IC50 [4] of 250 nM.
`C/C(=C\Cc1c(O)c(Cl)c(C)c(C=O)c1O)CC/C=C(\C)COC(=O)C(C)(C)C` [Compound D17] was tested, and the IC50 [3] was 488 ± 15 nM and the IC50 [4] was 480 nM.
In the case of `C/C(=C\Cc1c(O)c(Cl)c(C)c(C=O)c1O)CC/C=C(\C)C(C)O` (stereo not shown) [Compound D18], the IC50 (read-out: IC50, E. multilocularis SQR inhibition, Table 5, furanone ring-substituted derivatives, mean ± SEM) is reported as 3770 ± 980 nM.
With `C/C(=C\CC/C(C)=C/Cc1c(O)c(Cl)c(C)c(C=O)c1O)CO` [Compound D19] the IC50 [3] was over 10000 nM.
